Active and inactive are the calls of the source. The rule behind the calls is not given here.
Test system: CCRIS mutagenicity, Ames/micronucleus/aberration tests
Assay: CCRIS mutagenicity studies
[1] = Test System: AMES SALMONELLA TYPHIMURIUM, Strain/Indicator: TA98, Metabolic Activation: NONE, Method: STANDARD PLATE
[2] = Test System: AMES SALMONELLA TYPHIMURIUM, Strain/Indicator: TA98, Metabolic Activation: RAT, LIVER, S-9, AROCLOR 1254, Method: STANDARD PLATE
[3] = Test System: AMES SALMONELLA TYPHIMURIUM, Strain/Indicator: TA100, Metabolic Activation: NONE, Method: STANDARD PLATE
[4] = Test System: AMES SALMONELLA TYPHIMURIUM, Strain/Indicator: TA100, Metabolic Activation: RAT, LIVER, S-9, AROCLOR 1254, Method: STANDARD PLATE
[5] = Test System: AMES SALMONELLA TYPHIMURIUM, Strain/Indicator: TA98, Metabolic Activation: NONE, Method: PREINCUBATION
[6] = Test System: AMES SALMONELLA TYPHIMURIUM, Strain/Indicator: TA100, Metabolic Activation: NONE, Method: PREINCUBATION

In the case of `c1ccc2c(c1)c1cccc3ccc4cccc2c4c31`, the mutagenic call (End Point: IN VITRO MICRONUCLEUS, Test System: CHINESE HAMSTER V79 CELLS, Metabolic Activation: S-9) is reported as “active; positive”, the mutagenic call (Test System: AMES SALMONELLA TYPHIMURIUM, Strain/Indicator: TA97, Metabolic Activation: NONE, Method: STANDARD PLATE) is reported as “inactive; negative” and the mutagenic call (Test System: AMES SALMONELLA TYPHIMURIUM, Strain/Indicator: TA97, Metabolic Activation: RAT, LIVER, S-9, PCB, Method: STANDARD PLATE) is reported as “active; positive”. The mutagenic call [1] was “inactive; negative”, the mutagenic call [2] was “active; positive” and the mutagenic call (Test System: AMES SALMONELLA TYPHIMURIUM, Strain/Indicator: TA98, Metabolic Activation: RAT, LIVER, S-9, PCB, Method: STANDARD PLATE) was “active; positive”. For the same compound, the mutagenic call (Test System: AMES SALMONELLA TYPHIMURIUM, Strain/Indicator: TA100, Metabolic Activation: MOUSE, LIVER, MICROSOMES, BENZO[E]PYRENE AND TCDD, Method: STANDARD PLATE) was “inactive; negative”, the mutagenic call [3] was “inactive; negative” and the mutagenic call [4] was “active; positive”. For the same compound, the mutagenic call (Test System: AMES SALMONELLA TYPHIMURIUM, Strain/Indicator: TA100, Metabolic Activation: RAT, LIVER, S-9, PCB, Method: STANDARD PLATE) was “active; positive”, the mutagenic call (Test System: E. COLI, Strain/Indicator: WP2 UVRA, Metabolic Activation: HAMSTER, LIVER, S-9, AROCLOR 1254, Method: STANDARD PLATE) was “inactive; negative” and the mutagenic call (Test System: E. COLI, Strain/Indicator: WP2 UVRA, Metabolic Activation: HAMSTER, LIVER, S-9, Method: STANDARD PLATE) was “inactive; negative”. For the same compound, the mutagenic call (Test System: E. COLI, Strain/Indicator: WP2 UVRA, Metabolic Activation: MOUSE, LIVER, S-9, AROCLOR 1254, Method: STANDARD PLATE) was “inactive; negative”, the mutagenic call (Test System: E. COLI, Strain/Indicator: WP2 UVRA, Metabolic Activation: MOUSE, LIVER, S-9, Method: STANDARD PLATE) was “inactive; negative” and the mutagenic call (Test System: E. COLI, Strain/Indicator: WP2 UVRA, Metabolic Activation: NONE, Method: STANDARD PLATE) was “inactive; negative”. For the same compound, the mutagenic call (Test System: E. COLI, Strain/Indicator: WP2 UVRA, Metabolic Activation: RAT, LIVER, S-9, AROCLOR 1254, Method: STANDARD PLATE) was “inactive; negative”, the mutagenic call (Test System: E. COLI, Strain/Indicator: WP2 UVRA, Metabolic Activation: RAT, LIVER, S-9, Method: STANDARD PLATE) was “inactive; negative” and the mutagenic call (Test System: MOUSE LYMPHOMA, Strain/Indicator: L5178Y (TK+/TK-), Metabolic Activation: NONE, Method: SUSPENSION/PLATE) was “inactive; negative”. For the same compound, the mutagenic call (Test System: MOUSE LYMPHOMA, Strain/Indicator: L5178Y (TK+/TK-), Metabolic Activation: RAT, LIVER, S-9, AROCLOR 1254, Method: SUSPENSION/PLATE) was “active; positive”, the mutagenic call (Test System: MOUSE LYMPHOMA, Strain/Indicator: L5178Y (TK+/TK-), Metabolic Activation: RAT, LIVER, S-9, Method: SUSPENSION/PLATE) was “inactive; negative” and the mutagenic call (Test System: UDS HUMAN CELLS, Strain/Indicator: THY INCORP (NON-S-PHASE), Metabolic Activation: RAT, LIVER, S-9, 3-METHYLCHOLANTHRENE, Method: LIQUID SCINTILLATION COUNTING) was “active; positive”.
In the case of `CCCCCCCCCCCCCC(=O)N(OC(C)=O)c1ccc2c(c1)Cc1ccccc1-2`, the mutagenic call (Test System: UDS HUMAN FIBROBLASTS, Strain/Indicator: THY INCORP (NON-S-PHASE), Metabolic Activation: NONE, Method: AUTORADIOGRAPHY) is reported as “active; positive”.
For `CCc1cccc(CC)c1N`, the mutagenic call [5] was “inactive; negative”, the mutagenic call [1] was “inactive; negative” and the mutagenic call (Test System: AMES SALMONELLA TYPHIMURIUM, Strain/Indicator: TA98, Metabolic Activation: RAT, LIVER, MICROSOMES, PHENOBARBITAL, Method: PREINCUBATION) was “inactive; negative”. The mutagenic call [2] was “active; positive”, the mutagenic call [6] was “inactive; negative” and the mutagenic call [3] was “inactive; negative”. For the same compound, the mutagenic call (Test System: AMES SALMONELLA TYPHIMURIUM, Strain/Indicator: TA100, Metabolic Activation: RAT, LIVER, MICROSOMES, PHENOBARBITAL, Method: PREINCUBATION) was “inactive; negative”, the mutagenic call [4] was “active; positive” and the mutagenic call (Test System: Ames Salmonella typhimurium, Strain/Indicator: TA97, Metabolic Activation: None, Method: Suspension) was “active; positive”. For the same compound, the mutagenic call (Test System: Ames Salmonella typhimurium, Strain/Indicator: TA98, Metabolic Activation: None, Method: Suspension) was “active; positive”, the mutagenic call (Test System: Ames Salmonella typhimurium, Strain/Indicator: TA100, Metabolic Activation: None, Method: Preincubation) was “inactive; negative” and the mutagenic call (Test System: Ames Salmonella typhimurium, Strain/Indicator: TA1535, Metabolic Activation: None, Method: Suspension) was “inactive; negative”. For the same compound, the mutagenic call (Test System: Ames Salmonella typhimurium, Strain/Indicator: TA1537, Metabolic Activation: None, Method: Suspension) was “inactive; negative” and the mutagenic call (Test System: Ames Salmonella typhimurium, Strain/Indicator: TA1538, Metabolic Activation: None, Method: Suspension) was “active; positive (weak response; no dose response)”.
For `COc1cc(S(=O)(=O)O)c(C)cc1N=Nc1c(O)ccc2cc(S(=O)(=O)O)ccc12`, the mutagenic call [5] was “inactive; negative”, the mutagenic call [1] was “inactive; negative” and the mutagenic call (Test System: AMES SALMONELLA TYPHIMURIUM, Strain/Indicator: TA98, Metabolic Activation: RAT LIVER S-9, AROCLOR 1254, Method: STANDARD PLATE) was “inactive; negative”. The mutagenic call (Test System: AMES SALMONELLA TYPHIMURIUM, Strain/Indicator: TA98, Metabolic Activation: S-9, Method: PREINCUBATION) was “inactive; negative”, the mutagenic call [6] was “inactive; negative” and the mutagenic call [3] was “inactive; negative”. The mutagenic call (Test System: AMES SALMONELLA TYPHIMURIUM, Strain/Indicator: TA100, Metabolic Activation: RAT LIVER S-9, AROCLOR 1254, Method: STANDARD PLATE) was “inactive; negative” and the mutagenic call (Test System: AMES SALMONELLA TYPHIMURIUM, Strain/Indicator: TA100, Metabolic Activation: S-9, Method: PREINCUBATION) was “inactive; negative”.
For `Oc1cccc2c3ccccc3c3cc4ccccc4cc3c12`, the mutagenic call (Test System: AMES SALMONELLA TYPHIMURIUM, Strain/Indicator: TA100, Metabolic Activation: RAT, LIVER, S-9, AROCLOR 1254, Method: PREINCUBATION) was “inactive; negative”.
`CN1CC[C@H](c2c(O)cc(O)c3c(=O)cc(-c4ccccc4Cl)oc23)[C@H](O)C1` was tested, and the mutagenic call (Test System: Mouse lymphoma, Strain/Indicator: L5178Y (tk+/tk-), Metabolic Activation: None, Method: Suspension/plate) was “inactive; negative” and the mutagenic call (Test System: Mouse lymphoma, Strain/Indicator: L5178Y (tk+/tk-), Metabolic Activation: Rat, Liver, S-9, Aroclor 1254, Method: Suspension/plate) was “active; inconclusive (previous evaluation positive)”.
For `CC(C)NCC(O)c1ccc2ccccc2c1` (centres undefined), the mutagenic call (Test System: AMES SALMONELLA TYPHIMURIUM, Strain/Indicator: TA98, Metabolic Activation: NONE) was “inactive; negative”, the mutagenic call (Test System: AMES SALMONELLA TYPHIMURIUM, Strain/Indicator: TA98, Metabolic Activation: RAT, LIVER, S-9, AROCLOR 1254) was “inactive; negative” and the mutagenic call (Test System: AMES SALMONELLA TYPHIMURIUM, Strain/Indicator: TA100, Metabolic Activation: NONE) was “inactive; negative”. For the same compound, the mutagenic call (Test System: AMES SALMONELLA TYPHIMURIUM, Strain/Indicator: TA100, Metabolic Activation: RAT, LIVER, S-9, AROCLOR 1254) was “inactive; negative”, the mutagenic call (Test System: AMES SALMONELLA TYPHIMURIUM, Strain/Indicator: TA1535, Metabolic Activation: NONE) was “inactive; negative” and the mutagenic call (Test System: AMES SALMONELLA TYPHIMURIUM, Strain/Indicator: TA1535, Metabolic Activation: RAT, LIVER, S-9, AROCLOR 1254) was “inactive; negative”. For the same compound, the mutagenic call (Test System: AMES SALMONELLA TYPHIMURIUM, Strain/Indicator: TA1537, Metabolic Activation: NONE) was “inactive; negative” and the mutagenic call (Test System: AMES SALMONELLA TYPHIMURIUM, Strain/Indicator: TA1537, Metabolic Activation: RAT, LIVER, S-9, AROCLOR 1254) was “inactive; negative”.
`COc1cc(O)c2c(c1)C(=O)c1cc(C)cc(O)c1C2=O` was tested, and the mutagenic call [1] was “inactive; negative”, the mutagenic call [2] was “inactive; negative” and the mutagenic call [3] was “inactive; negative”. The mutagenic call [4] was “inactive; negative”, the mutagenic call (Test System: AMES SALMONELLA TYPHIMURIUM, Strain/Indicator: TA102, Metabolic Activation: RAT, LIVER, S-9, AROCLOR 1254, Method: STANDARD PLATE) was “inactive; negative” and the mutagenic call (Test System: AMES SALMONELLA TYPHIMURIUM, Strain/Indicator: TA1537, Metabolic Activation: NONE, Method: STANDARD PLATE) was “inactive; negative”. The mutagenic call (Test System: AMES SALMONELLA TYPHIMURIUM, Strain/Indicator: TA1537, Metabolic Activation: RAT, LIVER, S-9, AROCLOR 1254, Method: STANDARD PLATE) was “active; positive” and the mutagenic call (Test System: AMES SALMONELLA TYPHIMURIUM, Strain/Indicator: TA1537, Metabolic Activation: S-9, Method: STANDARD PLATE) was “active; positive”.
With `Nc1c(F)cc(-c2cc(F)c(N)c(F)c2)cc1F` the mutagenic call (Test System: UDS HUMAN CELLS, Strain/Indicator: THY INCORP (NON-S-PHASE), Metabolic Activation: RAT, LIVER, S-9, PHENOBARBITAL, Method: LIQUID SCINTILLATION COUNTING) was “active; positive”.
